Values of other authors in US20070196500A1, “Composition for oral administration of tamsulosin hydrochloride and controlled release granule formulation comprising same” (priority 2004, published 2007).
Counter-ions that a name gives are not always drawn.

water-solubility: low water-solubility
SMILES: CCOc1ccccc1OCCN[C@H](C)Cc1ccc(OC)c(S(N)(=O)=O)c1 [Tamsulosin hydrochloride, tamsulosin hydrochloride]
